The nature of series [1]: Reaction kinetics of N-oxides with B2pin2, stopped-flow fluorometry, pseudo-first order. Conditions: reaction with B2pin2 in PBS (pH 7.4), pseudo-first order conditions. As to the method: Data represent the mean of experiments performed in triplicate. […] Data represent the mean of experiments performed in triplicate. Error bars represent a standard deviation. […] Data represent the mean of experiments performed in triplicate. […] Data represent the mean of experiments done in triplicate. Error bars represent a standard deviation.
The kinetics of the reaction were first evaluated using N-oxide 6 (FIG. 2, panel A).
The reaction was then performed on a biomolecule. […] It should be noted, however, that pseudo-first-order kinetics performed under saturating conditions can obscure important information regarding the deactivation of the diboron reagent through sequestration or off-target reactivity. To address this issue, a 64-kDa GFP-HaloTag fusion protein was expressed, ligated to compound 10 to produce GFP-HaloTag-10.

Series [2] in a line: Reaction kinetics of amine N-oxide with p-nitrophenylboronic acid in water, UV/vis absorption of p-nitrophenol, pseudo-first order. Conditions: reaction with p-nitrophenylboronic acid (2) in water, room temperature. As to the method: A first experiment was performed to determine the kinetic parameters for the reaction between TMAO (1) and p-nitrophenylboronic acid (2) in water (see FIG. 1, panel A). Reaction progress was monitored by UV/vis absorption of product p-nitrophenol (3) under pseudo-first order conditions. A second-order rate constant of 2.83±0.05×10^−6 M^−1s^−1 was determined for the reaction at room temperature, several orders of magnitude below current standards of bioorthogonal reactivity (see e.g., Lang et al., ACS Chem. Biol. 2014, 9, 16; McKay et al. Chem. Biol. 2014, 21, 1075; Patterson et al., ACS Chem. Biol. 2014, 9, 592; (e) Sletten et al., Angew. Chem. Int. Ed. 2009, 48, 6974) but nonetheless a starting point for kinetic optimization.

For series [3], the system named is HEK293T cells transiently transfected with a cytosolic GFP-HaloTag fusion construct. Nature of the series: Intracellular uncaging and membrane permeability in live cells, confocal microscopy. Type of series: cell-based, human. As to the method: Green (left column), red (middle column), and blue (not shown) channels represent GFP, TAMRA, and Hoechst 33342 fluorescence, respectively. The merged image (right column) is a composite of all three channels with a phase contrast image.
HEK293T cells were transiently transfected with a cytosolic GFP-HaloTag fusion construct, then treated with 100 µM compound 10.

The values that follow come from patent publication US20180215783A1, “BIOORTHOGONAL REACTION OF AN AMINE N-OXIDE AND A BORON AGENT” (The Regents of the University of California, priority 2015, published 2018).

As to HaloTag Rhodol N-Oxide [compound 8], the second-order rate constant in series [1] is recorded as 1.71±0.043×10^3 M^−1s^−1.
For `C[N+](C)(C)[O-]` [TMAO, Trimethylamine N-oxide], the second-order rate constant in series [2] is 2.83±0.05×10^−6 M^−1s^−1.
For the molecule “5(6)-HaloTag Tetramethylrhodamine Bis-N-Oxide [compound 10]”, the “TAMRA signal upon addition of B2pin2” value in series [3] (cells loaded with compound, washed, B2pin2 0 μM, 10 μM, 100 μM or 1 mM in media for 45 min) is “increased”. In addition, the membrane permeability entry in series [3] (live HEK293T cells) was “cell permeable”.
